Experimental data from publication PMC9454942, “Novel AR/AR-V7 and Mnk1/2 Degrader, VNPP433-3β: Molecular Mechanisms of Action and Efficacy in AR-Overexpressing Castration Resistant Prostate Cancer In Vitro and In Vivo Models” (Cells, 2022).

Molecular target: T1, androgen receptor (AR) ligand binding domain (Homo sapiens, UniProt P10275)
T1 construct: recombinant human AR LBD
T1 sequence (P10275 669-920 limits assumed): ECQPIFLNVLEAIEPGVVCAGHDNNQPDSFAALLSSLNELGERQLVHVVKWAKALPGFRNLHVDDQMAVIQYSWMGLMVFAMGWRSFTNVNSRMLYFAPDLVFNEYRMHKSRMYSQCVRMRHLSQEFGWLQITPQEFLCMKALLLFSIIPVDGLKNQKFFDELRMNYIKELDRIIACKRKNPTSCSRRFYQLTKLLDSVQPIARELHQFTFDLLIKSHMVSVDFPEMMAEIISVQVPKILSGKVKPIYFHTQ
Assay: fluorescence spectroscopy titration with purified AR LBD; supported by CETSA in LNCaP cells

For `C[C@]12CC[C@H](n3ccnc3)CC1=CC[C@@H]1[C@@H]2CC[C@]2(C)C(n3cnc4ccccc43)=CC[C@@H]12` [VNPP433-3β], the Kd was 0.36 ± 0.03 µM.
